In patent US5620676A, “Biologically active ATP analogs” (priority 1995, dated 1997):

Tests used:
P2X and P2Y receptors = experiment: Overall activity in the seven P2X and P2Y preparations
[1] = tested on: P2X receptor (rat urinary bladder membranes); experiment: Displacement of [3H]-α,β-methylene-ATP from rat urinary bladder membranes; type: binding; conditions: about 10 nM [3H]-α,β-MeATP
Method: Certain ATP analogs known to bind to P2Y receptors, as disclosed in Examples 4-9, were tested on membrane preparations of urinary bladder, which is known to include P2X receptors (See, e.g., Lukacsko et al., Eur. J. Pharmacol., 80, 401-406 (1982)). The assay used is predicated on the specific displacement of […] known to bind at the P2X receptor, namely α,β-methylene-ATP.
For this assay, male Wistar rats (200-250 g) were killed by asphyxiation with CO2. […] The pellets were washed and suspended in buffer A and the protein content was determined using the method of Peterson (Anal. Biochem., 83, 346-356 (1977)).
Displacement experiments were carried out by incubating the membrane preparations with about 10 nM [^3 H]-α,β-MeATP and various concentrations of an unlabeled ligand in buffer A at 4° C. for 120 min (final volume 0.5 ml). […] The filters were washed with 2 aliquots of 5 ml ice-cold 5 mM Tris/HCl buffer, pH 7.4, dried under an infrared lamp, and then the radioactivity trapped in the filters was measured in a Beckman SC6100 I scintillation counter with an efficiency of about 56 to 61%. Non-specific binding was determined by including 100 μM β,γ-methylene-ATP in the incubation mixture.

Structure (SMILES) | overall activity in words, all preparations (P2X and P2Y receptors) | P2X binding in words [1]
N#CCCCCCCSc1nc(N)c2ncn([C@@H]3O[C@H](COP(=O)(O)OP(=O)(O)OP(=O)(O)O)[C@@H](O)[C@H]3O)c2n1 [2-(6-Cyanohexylthio)-ATP, 2-(6-Cyanohexylthio)adenosine-5'-triphosphate] | more potent than ATP in all systems except the P2X system of the saphenous artery | –
C=CCCCCSc1nc(NC)c2ncn([C@@H]3O[C@H](COP(=O)(O)OP(=O)(O)OP(=O)(O)O)[C@@H](O)[C@H]3O)c2n1 [N^6 -Me-2-(5-hexenyl)-thio-ATP, N^6 -Me-2-(5-hexenylthio)adenosine 5'-triphosphate] | – | two orders of magnitude greater concentration
